We go through 14 compounds from ChEMBL document CHEMBL5137058, “Therapeutic Strategies to Target the Androgen Receptor” (J Med Chem, 2022).

SMILES strings stand for the structures.

Series [1] addresses T1, Androgen receptor (Homo sapiens, UniProt P10275).
T1 sequence (P10275 whole entry): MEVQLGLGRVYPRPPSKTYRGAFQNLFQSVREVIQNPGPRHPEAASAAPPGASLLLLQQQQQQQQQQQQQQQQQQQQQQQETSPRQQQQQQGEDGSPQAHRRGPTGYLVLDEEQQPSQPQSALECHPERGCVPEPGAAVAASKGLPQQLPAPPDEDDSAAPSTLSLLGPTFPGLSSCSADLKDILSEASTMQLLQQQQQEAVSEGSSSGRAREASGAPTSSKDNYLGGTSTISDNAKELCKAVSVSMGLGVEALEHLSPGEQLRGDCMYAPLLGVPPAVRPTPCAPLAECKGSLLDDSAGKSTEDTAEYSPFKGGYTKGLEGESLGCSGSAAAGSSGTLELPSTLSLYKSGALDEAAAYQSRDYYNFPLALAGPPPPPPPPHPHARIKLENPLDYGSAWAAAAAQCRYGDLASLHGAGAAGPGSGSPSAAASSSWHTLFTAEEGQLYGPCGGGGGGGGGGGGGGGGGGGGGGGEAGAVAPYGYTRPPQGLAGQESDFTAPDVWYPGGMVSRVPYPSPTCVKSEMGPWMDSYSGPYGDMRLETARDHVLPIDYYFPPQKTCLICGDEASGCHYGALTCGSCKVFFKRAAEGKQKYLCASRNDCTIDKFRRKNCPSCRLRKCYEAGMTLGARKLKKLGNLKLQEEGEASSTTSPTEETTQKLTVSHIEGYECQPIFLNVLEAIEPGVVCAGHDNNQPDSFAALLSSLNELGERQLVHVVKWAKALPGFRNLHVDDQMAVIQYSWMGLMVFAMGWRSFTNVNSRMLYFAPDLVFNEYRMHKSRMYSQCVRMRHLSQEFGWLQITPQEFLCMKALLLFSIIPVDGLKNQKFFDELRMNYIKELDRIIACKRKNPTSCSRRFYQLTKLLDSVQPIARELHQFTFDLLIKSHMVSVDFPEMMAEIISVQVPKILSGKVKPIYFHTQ
Kind of series: Agonist activity at Androgen receptor (unknown origin) measured by androgen response element luciferase assay.

For series [2], the target named is T1, Androgen receptor. Put plainly: Binding affinity to Androgen receptor (unknown origin).
Series [3] in a line: In vivo agonist activity at Androgen receptor in castrated rat assessed as increase in prostate weight at 2 mg administered orally per day for 5 days. Format: functional. The settings on record: route po, time 5 day.
The nature of series [4]: In vivo agonist activity at Androgen receptor in castrated rat assessed as increase in levator ani muscle weight at 2 mg administered orally per day for 5 days. Type of series: functional. The settings on record: route po, time 5 day.
In series [5] the test system is LNCaP. Put plainly: Antitumor activity against human LNCaP cells xenografted in mouse assessed as decrease in PSA level at 100 mg/kg, sc. Type of series: functional. The arrangement: scale not given: the % may be the effect or the level left. (In general: Xenograft models place foreign cells or tissue in a host animal.)
Series [6] has as its system LNCaP. Put plainly: Antiproliferative activity against human LNCaP cells expressing Androgen receptor […] mutant. Type of series: functional, cell-based.
For a further series, the system named is CWR22R. Kind of series: Antiproliferative activity against human 22Rv1 cells expressing Androgen receptor H874Y mutant. Type of series: functional, cell-based.
The next series concerns PC-3. Kind of series: Antiproliferative activity against androgen-independent human PC-3 cells. Type of series: functional, cell-based.
Another series concerns SC-3. Kind of series: Antiproliferative activity against mouse SC-3 cells. Format: functional, cell-based.
Series [7] deals with T1, Androgen receptor. Kind of series: Binding affinity to human Androgen receptor.
Series [8] is described as follows: In vivo agonist activity at Androgen receptor in castrated male rat assessed as increase in prostate weight at 0.75 mg/kg, po administered for 14 days. Format: functional. Conditions: time 14 day.
The nature of series [9]: In vivo agonist activity at Androgen receptor in castrated male rat assessed as increase in levator ani muscle weight at 0.75 mg/kg, po administered for 14 days. Type of series: functional. The settings on record: time 14 day.
For a further series, the system named is T47D. Put plainly: Antiproliferative activity against human T47D cells. Type of series: functional, cell-based.
A short description of series [10]: Antiproliferative activity against androgen-sensitive mouse SEM-107 cells. Format: functional, cell-based.
Series [11] concerns the target T1, Androgen receptor. Put plainly: Agonist activity at human Androgen receptor expressed in African green monkey CV-1 cells measured by ARE-luciferase assay. Format: cell-based.
In series [12] the target is T1, Androgen receptor. Kind of series: Activation of human Androgen receptor N/C (N-terminal/C-terminal) interaction.
In series [13] the test system is LNCaP. Put plainly: Antitumor activity against human LNCaP cells xenografted in mouse assessed as decrease in PSA level at 25 mg/kg, sc. Format: functional. On the set-up: scale not given: the % may be the effect or the level left.
Series [14] concerns the target T1, Androgen receptor. Kind of series: Agonist activity at Androgen receptor in human 22Rv1 cells cotransfected with pARE-LUC measured by luciferase assay. Type of series: cell-based.
In series [15] the target is T1, Androgen receptor. Kind of series: Antagonist activity at Androgen receptor (unknown origin) assessed as downregulation of AR.
A short description of series [16]: Oral bioavailability in dog. Type of series: ADME, organism-based, Canis lupus familiaris. The settings on record: in vivo.
In another series the test system is Rattus norvegicus. Kind of series: Anti-androgenic activity in rat assessed as decrease in seminal vesicle weight at 2.58 microM/Kg, po administered twice daily for 7 days. Type of series: functional. The arrangement: scale not given: the % may be the effect or the level left. Conditions: time 7 day, at 2.58 µmol/kg.
Series [17] in a line: Oral bioavailability in rat. Format: ADME, organism-based. Conditions: in vivo.
Series [18] concerns the target T1, Androgen receptor. Put plainly: Binding affinity to human Androgen receptor measured by fluorescence polarization assay.
The target of series [19] is T1, Androgen receptor. Put plainly: Antagonist activity at wild-type Androgen receptor (unknown origin) expressed in African green monkey COS-7 cells measured as gene transcription level. Type of series: cell-based.
Series [20] is described as follows: Antitumor activity against bicalutamide-resistant human LNCaP-cxD2 cells xenografted in mouse at 50 mg/kg, po administered for 28 days. Type of series: functional. The settings on record: time 28 day.
In series [21] the target is T1, Androgen receptor. Kind of series: Binding affinity to wild-type Androgen receptor (unknown origin).
Series [22] is described as follows: Antitumor activity against bicalutamide-resistant human LNCaP-cxD2 cells xenografted in mouse at 40 mg/kg, po administered for 28 days. Format: functional. The settings on record: time 28 day.

Consider `C[C@](O)(CCOc1ccc(F)cc1)C(=O)N1CCc2c(C#N)cccc21`, for which the concentration for a half-maximal effect (EC50) – broadly, the midpoint of the concentration-response curve – at Androgen receptor [1] was found to be 2.5 nM. Moreover, the IC50 at Androgen receptor [2] (read-out: IC50) was 12.7 nM.
For the compound `C[C@@]12CC(C(F)(F)F)=NN1C(=O)N(c1ccc(C#N)c(C(F)(F)F)c1)C2=O`, the Activity in [3] came out at 11%; in series [4], 75%.
Consider `CC1(C)[C@H](NC(=O)c2cnn(CCO)c2)C(C)(C)[C@H]1Oc1ccc(C#N)c(Cl)c1`, for which, in the series with LNCaP [5], the Activity is recorded as greater than 90%.
With `COc1cccc(C(=O)Nc2ccc(Oc3ccc(O)cc3)c(C)c2)c1`, the IC50 was 43 nM in the series on LNCaP [6], 220 nM in the series with CWR22R, greater than 10000 nM with PC-3 and 750 nM with SC-3.
Regarding `Cc1c(N2C3CCC2CC(C)(O)C3)ccc(C#N)c1Cl` (centres undefined), the IC50 on Androgen receptor [7] stood at 1 nM. Moreover, the results for the Activity in [8] and in [9] were 21% and 68%, respectively.
Take `CC(C)(O)C(=O)Nc1ccc([N+](=O)[O-])c(C(F)(F)F)c1` [HYDROXYFLUTAMIDE]: the IC50 in the series on T47D amounted to 45 nM; in [10], 84 nM.
For the compound `N#Cc1ccc(-c2ccc(O)cc2F)[nH]1`, the EC50 on Androgen receptor [11] worked out at 0.34 nM; at Androgen receptor [12] it was 1210 nM.
For `Cc1nc(O[C@H]2C(C)(C)[C@H](NC(=O)c3cnc4ncccn34)C2(C)C)ccc1C#N`, the Activity with LNCaP [13] was greater than 90%.
Compound `CCCN(CC(F)(F)F)c1cc(Br)c(C#N)s1` had an IC50 at Androgen receptor [14] of 10 nM.
Take `CC(=O)N1CCN(CCOc2ccc(C3CCN(C4=Nn5c(nnc5C(F)(F)F)CC4)CC3)cc2)CC1` [AZD3514]: on Androgen receptor [15], the IC50 was greater than 1780 nM. For the same compound, in [16], the bioavailability (as a rule, dose-corrected exposure relative to a reference, in per cent) stood at 75%.
On to `N#Cc1ccc(CN2CCN(c3ccc4nnc(C(F)(F)F)n4n3)CC2)cc1`, for which the Activity in the series with Rattus norvegicus is recorded as 80%. In [17], this compound registered a bioavailability of 100%. In addition, the IC50 is greater than 1580 nM at Androgen receptor [15] and greater than 79400 nM at Androgen receptor [2] (read-out: pIC50 (converted)).
Take `Cc1c(N[C@@H](c2ccc(-c3ccc(C#N)cc3)o2)[C@H](C)O)ccc(C#N)c1Cl`: the Ki (as a rule, a dissociation constant, usually derived from enzyme kinetics or from competition with a known ligand) at Androgen receptor [18] is 7 nM.
For `Cc1nn(-c2ccc(C#N)c(Cl)c2)c(C)c1Oc1ccc(C(=O)NC(C)(C)C)cn1`, the IC50 at Androgen receptor [19] is 1000 nM; at Androgen receptor [21], 430 nM. Moreover, in series [20], the T/C (commonly the result in the treated group divided by that in the control group, in per cent) amounted to 17%.
The compound `Cc1nn(-c2ccc(C#N)c(Cl)c2)c(C)c1Cc1ccc(C(=O)NCC(C)(C)O)cc1` registered a T/C in [22] of 23%.
